Test results taken from patent US20210121466A1, “COMBINATION THERAPY OF A CHIMERIC ANTIGEN RECEPTOR (CAR) T CELL THERAPY AND A KINASE INHIBITOR” (Juno Therapeutics, Inc., priority 2018, published 2021).

Columns and labels:
anti-CD19 CAR T cells [1] = assay: Cytokine production in supernatants of CAR-T / K562-CD19 co-cultures (MSD); type: cell-based, human
Excerpt: (§1) To generate CAR-expressing T cells, T cells were isolated by immunoaffinity-based enrichment from three healthy human donor subjects, and cells from each donor were activated and transduced with a viral vector encoding an anti-CD19 CAR. The CAR contained an anti-CD19 scFv, an Ig-derived spacer, a human CD28-derived transmembrane domain, a human 4-1BB-derived intracellular signaling domain and a human CD3 zeta-derived signaling domain. The nucleic acid construct encoding the CAR also included a truncated EGFR (tEGFR) sequence for use as a transduction marker, separated from the CAR sequence by a self-cleaving T2A sequence.
(§2) CAR-expressing CD4+ and CD8+ cells were mixed 1:1 for each donor, individually, and the pooled cells for each donor assessed in vitro under various conditions.
CAR-T cells generated as described above were plated at 100,000 cells/well on 96 well Poly-D-Lysine coated plates to which irradiated target cells (K562-CD19) were added at an effector to target ratio of 2.5:1. […] Culture supernatants were harvested every 24 hrs at days 1, 2, 3 and 4, and IFNγ, IL-2, TNFα, IL-4 and IL-10 were measured from the culture supernatants using cytokine kits from Meso Scale Discovery (MSD).

[2] = tested on: CD19+ Nalm-6 disseminated tumor line; assay: Disseminated Nalm-6 tumor xenograft mouse model, ibrutinib in drinking water; type: in vivo, NSG mice
Protocol: (§3) NSG mice described in Example 2 were intravenously injected on day 0 with 5×10^5 Nalm-6 cells expressing firefly luciferase. […] To permit assessment of the effect of a combination therapy with the inhibitor, a suboptimal dose of anti-CD19 CAR T cells was i.v. injected into the mice at 5×10^5/mouse at day 5. As a control, mice were administered the vehicle control without administration of the CAR-T cells or inhibitor.

CAR T cells = assay: CD62L expression by flow cytometry after 18 days of serial stimulation; type: cell-based, human; conditions: donors 2 and 3
Protocol: (§4) The ability of cells to expand ex vivo following repeated stimulations in some aspects can indicates capacity of CAR-T cells to persist (e.g., following initial activation) and/or is indicative of function and/or fitness in vivo (Zhao et al. (2015) Cancer Cell, 28:415-28). Anti-CD19 CAR+ T cells generated as described above were plated in triplicate at 100,000 cells/well on 96 well Poly-D-Lysine coated plates, and irradiated target cells (K562-CD19) were added at an effector to target ratio of 2.5:1. […] A total of 7 rounds of stimulation during a 25 day culture period were carried out.

CAR-expressing T cells = assay: RNA-Seq molecular signature of CAR-expressing T cells after 18 days of serial stimulation; type: cell-based, human
Protocol: RNA isolation was performed using the RNEasy Micro Kit (Qiagen). Samples were sequenced and RNASeq reads were mapped to the human genome (GRCh38) and aligned to the GENCODE release 24 gene model. […] Differentially expressed genes were identified by imposing a log2 fold change cutoff of 0.5 and a Benjamini-Hochberg adjusted false discovery rate (FDR) cutoff of 0.05.

anti-CD19 CAR T cells [3] = assay: TH1 phenotype (CD4+CXCR3+CRTH2-) and activation/memory markers by flow cytometry during serial restimulation; type: cell-based, human
Protocol: as §4
A serial restimulation assay was performed as described above and cells were harvested at various times and analyzed by flow cytometry to assess percentage of TH1-phenotype (assessed as CD4+CXCR3+CRTH2−) T cells or TH2-phenotype (assessed as CD4+CXCR3−CRTH2+).

[4] = in vivo; cited from earlier work
[5] = tested on: CAR+ T cells and Nalm-6 tumor cells; assay: Levels of CAR+ T cells and tumor cells in blood, bone marrow and spleen of Nalm-6 bearing mice; type: in vivo, NSG mice
Protocol: as §3
Samples were analyzed to assess presence and levels of CAR T cells (based on expression of the surrogate marker using an anti-EGFR antibody) and/or tumor cells at days 7, 12, 19 and 26 post CAR+ T cell transfer.

anti-CD19 CAR T cells [6] = assay: Cytolytic activity of anti-CD19 CAR T cells co-cultured with K562-CD19 target cells in the presence of ibrutinib (IncuCyte); type: cell-based, human
Excerpt: as §1, §2
The target cells were labeled with NucLight Red (NLR), to permit tracking of target cells by microscopy.

[7] = tested on: CD19+ Nalm-6 disseminated tumor line; assay: Disseminated Nalm-6 tumor xenograft mouse model, ibrutinib by daily oral gavage; type: in vivo, NSG mice
Excerpt: On day zero (0), NSG mice were intravenously injected with 5×10^5 Nalm-6 cells expressing firefly luciferase. […] To permit assessment of the effect of a combination therapy with the inhibitor, a suboptimal dose of anti-CD19 CAR T cells from two different donors (generated by transducing cells derived from samples of human donor subjects essentially as described above) were i.v. injected into each mouse at a concentration of 5×10^5 CAR+ T cells per mouse at day 5. […] Eight (N=8) mice per group were monitored.
Following treatment as described above, tumor growth over time was measured by bioluminescence imaging and the average radiance (p/s/cm^2/sr) was measured. Survival of treated mice also was assessed over time.

anti-CD19 CAR T cells [8] = assay: Gene expression analysis (Nanostring Immune V2 panel) after 18 days of serial stimulation; type: cell-based, human; conditions: 50 nM or 500 nM; day 18 of serial restimulation
Protocol: as §4
At day 18 after serial stimulation, RNA was isolated from anti-CD19 CAR T cells and Nanostring Immune V2 panel tests were run across 594 genes. The log 2 (fold change) of each gene was plotted against the −log 10(Raw p-value) derived from ANOVA tests of unscaled housekeeping gene normalized to count data for treatment versus control.

anti-CD19 CAR T cells [9] = assay: Serial restimulation assay of anti-CD19 CAR+ T cells with K562-CD19 target cells; type: cell-based, human; conditions: day 18; both concentrations (50, 500 nM); two of three donors
Excerpt: as §1, §2, §4

anti-CD19 CAR T cells [10] = assay: Expression of CAR-T cell surface markers by flow cytometry after stimulation with irradiated K562-CD19 cells; type: cell-based, human
Excerpt: as §1, §2
CAR-T cells generated as described above were plated at 100,000 cells/well on 96 well Poly-D-Lysine coated plates. Irradiated K562-CD19 target cells were added at an effector to target ratio of 2.5:1. […] Cells were harvested at 1, 2, 3, and 4 days, and were analyzed by flow cytometry for T cell activation and differentiation surface markers CD69, CD107a, PD-1, CD25, CD38, CD39, CD95, CD62L, CCR7, CD45RO and for truncated EGFR (a surrogate marker for CAR-transduced cells).

CAR+ T cells = assay: Ex vivo immunophenotyping (flow cytometry, t-SNE) of CAR+ T cells at day 12 post CAR T transfer; type: in vivo, NSG mice
Protocol: as §3
Flow cytometry histograms showing the individual expression profiles of CD4, CD8, CD62L, CD45RA, CD44 and CXCR3 from the 4 gated t-SNE in FIG. 8B overlaid on the expression of the total population (shaded) is shown in FIG. 8C.

[11] = tested on: anti-CD19 CAR-T cells from DLBCL subjects; assay: Serial restimulation and cytolytic function of anti-CD19 CAR-T cells manufactured from DLBCL patients; type: cell-based, human
Excerpt: Cells were subjected to serial restimulation over a 21 day culture period and monitored for cell expansion and cytotoxic activity.

For `C=CC(=O)N1CCC[C@@H](n2nc(-c3ccc(Oc4ccccc4)cc3)c3c(N)ncnc32)C1` [ibrutinib, 1-[(3R)-3-[4-amino-3-(4-phenoxyphenyl)pyrazolo[3,4-d]pyrimidin-1-yl]piperidin-1-yl]prop-2-en-1-one], the “IFN-γ and IL-2 production” value (anti-CD19 CAR T cells [1]; 50 nM) was “some increase”, the cytokine production (anti-CD19 CAR T cells [1]; 50 nM, some donors) was “modestly increased” and the cytokine concentrations (anti-CD19 CAR T cells [1]; physiological concentrations of ibrutinib) was “did not significantly decrease”. For the same compound, the “tumor growth vs CAR T with vehicle alone” value ([2]; ibrutinib 25 mg/kg/day in drinking water with CAR T) was “significantly (P<0.001) decreased tumor growth”, the “median survival vs suboptimal anti-CD19 CAR T cell dose + vehicle” value ([2]; ibrutinib 25 mg/kg/day in drinking water with anti-CD19 CAR-T cells, p<0.001) was “increased median survival” and the CD62L expression (CAR T cells) was “significant increase”. For the same compound, the gene expression changes (CAR-expressing T cells; 50 nM, day 18) was “not significant, similar trends”, the “expression of HES6, HIC1, LZTFL1, NRIP1, CD38 and RARRES3” value (CAR-expressing T cells; day 18 serial stimulation) was “downregulation” and the “expression of MSC” value (CAR-expressing T cells; day 18 serial stimulation) was “upregulation”. For the same compound, the “expression of SELL/CD62L” value (CAR-expressing T cells; day 18 serial stimulation) was “increases”, the “expression of granzyme A and CD38” value (CAR-expressing T cells; day 18 serial stimulation) was “decreases” and the “percentage of TH1 cells” value (anti-CD19 CAR T cells [3]; 500 nM, P<0.01) was “further enhanced”. The “additional CAR T activation or memory markers” value (anti-CD19 CAR T cells [3]; CAR T cells from the serial stimulation assay) was “No significant effects”, the “percentage of CAR+ T cells with TH1 phenotype” value (anti-CD19 CAR T cells [3]; after serial stimulation, greater with increasing concentrations) was “increase the percentage” and the Cmax [4] was 227 nM. For the same compound, the “tumor cells detected in the blood, bone marrow or spleen vs vehicle alone” value ([5]; CAR+ cell treatment combined with ibrutinib) was “significantly fewer tumor cells”, the “circulating CAR+ T cells vs CAR+ T cells and vehicle” value ([5]; blood, ibrutinib in drinking water) was “significant increase” and the “number of CAR-T cells in the blood” value ([5]; day 19 post CAR-T cell transfer, p<0.05) was “significant increase in the number of cells”. The “cytolytic function of the anti-CD19 CAR T cells” value (anti-CD19 CAR T cells [6]; all concentrations tested (0.5-5000 nM) during the co-culture) was “did not inhibit”, the target cell killing (anti-CD19 CAR T cells [6]; one donor, P<0.0001) was “modestly increased target cell killing” and the “cytolytic activity of anti-CD19 CAR-expressing T cells (target cell killing normalized to untreated control, AUC)” value (anti-CD19 CAR T cells [6]; two donors, concentration increased up to 500 nM, E:T 2.5:1, 4 days) was “did not significantly impact”. For the same compound, the “survival vs CAR T and vehicle” value ([7]; greater time points, two donors, ibrutinib with CAR T, p<0.001) was “significantly increased survival”, the “median survival vs suboptimal anti-CD19 CAR T cell dose + vehicle” value ([7]; ibrutinib 25 mg/kg qd P.O. with CAR-T cells) was “increased median survival” and the “tumor growth vs CAR-T cells and vehicle” value ([7]; ibrutinib 25 mg/kg qd P.O. with suboptimal dose of anti-CD19 CAR T cells, p<0.001, p<0.0001) was “significantly decreased tumor growth”. The “tumor burden (average radiance) vs vehicle” value ([7]; ibrutinib alone, 25 mg/kg qd P.O., ibrutinib-resistant model) was “no effect on tumor burden”, the “gene expression (594 genes)” value (anti-CD19 CAR T cells [8]) was “did not significantly alter gene expression” and the “cell numbers and population doublings of anti-CD19 CAR T cells” value (anti-CD19 CAR T cells [9]) was “enhanced cell numbers and population doublings”. For the same compound, the “expression of truncated EGFR surrogate marker, activation markers CD25, CD38, CD39, CD95, CD62L and phenotypic markers CCR7, CD62L, CD45RO” value (anti-CD19 CAR T cells [10]; 5000, 500, 50, 5 and 0.5 nM, 3 donors, up to 4 days) was “no significant effect”, the “expression levels of CD69, CD107a or PD-1” value (anti-CD19 CAR T cells [10]; CD4+ or CD8+ cells cultured in the presence of ibrutinib) was “subtle decrease in expression levels” and the “percentage of anti-CD19 CAR T cells expressing CD69, CD107a or PD-1” value (anti-CD19 CAR T cells [10]; highest (supraphysiological) concentration tested) was “subtle decrease in the percentage”. The “phenotype of cells as central memory (TCM) or effector memory (TEM) subsets (CCR7, CD45RA)” value (anti-CD19 CAR T cells [10]; over four days after stimulation) was “did not affect the phenotype”, the “population 4 as percentage of CAR-T cells” value (CAR+ T cells; bone marrow, day 12, ibrutinib-treated animals) was 15.2% and the “phenotype of CAR+ T cells isolated from bone marrow” value (CAR+ T cells; day 12, CAR-T cells with ibrutinib vs control) was “phenotypic changes were observed”. The “CD8+CD44hi CXCR3hi CD45RAlo CD62Lhi (population 2) and CD4+CD44hi CXCR3int CD45RAhi CD62Lhi (population 4) in bone marrow vs control mice” value (CAR+ T cells; day 12 post CAR T transfer) was “increase”, the cytolytic activity ([11]; 50 nM, 16 days of serial stimulation, one patient, P<0.01) was “increase in cytolytic activity” and the cytolytic function ([11]; 500 nM, 16 days of serial stimulation, each subject) was “increase in cytolytic function”. For the same compound, the “proliferation of CAR T cells (cell doublings)” value ([11]; 50 and 500 nM, 21 day culture, both DLBCL patients) was “did not inhibit the proliferation”.
